Source: US20060063828A1 (priority 2004, published 2006)
pIC50: −log10 of the molar value.

Tests used:
VCAM-1 = assay: In Vitro VCAM-1 Assay (ELISA of VCAM-1 on TNF-α stimulated endothelial cells); format: cell-based; conditions: Endothelial cell; primary human aortic (HAEC) or pulmonary (HPAEC) endothelial cells, TNF-α (1 ng/ml), approximately 16 hours
Protocol: Cell Culture and compound dosing: Cultured primary human aortic (HAEC) or pulmonary (HPAEC) endothelial cells were obtained from Clonetics, Inc., and were used below passage 9. Cells were seeded in 96 well plates such that they would reach 90-95% confluency by the following day. On the following day the cells were stimulated with TNF-α (1 ng/ml) in the presence or absence of compounds dissolved in DMSO such that the final concentration of DMSO is 0.25% or less. To establish a dose curve for each compound, four concentrations in 2- to 5-fold increments were used. Cells were exposed to TNF-α and compounds for approximately 16 hours. The next day the cells were examined under microscope to score for visual signs of toxicity or cell stress.
Following 16 hr exposure to TNF-α and compound the media was discarded and the cells were washed once with Hanks Balanced Salt Solution (HBSS)/Phosphate buffered saline (PBS) (1:1). Primary antibodies against VCAM-1 (0.25 μg/ml in HBSS/PBS+5% FBS) were added and incubated for 30-60 minutes at 37° C. Cells were washed with HBSS/PBS three times, and secondary antibody Horse Radish Peroxidase (HRP)-conjugated goat anti-mouse IgG (1:500 in HBSS/PBS+5% FBS) were added and incubated for 30 minutes at 37° C. Cells were washed with HBSS/PBS four time and TMB substrate were added and incubated at room temperature in the dark until there was adequate development of blue color. The length of time of incubation was typically 5-15 minutes. 2N sulfuric acid was added to stop the color development and the data was collected by reading the absorbance on a BioRad ELISA plate reader at OD 450 nm. The results are expressed as IC50 values (the concentration (micromolar) of compound required to inhibit 50% of the maximal response of the control sample stimulated by TNF-α only).

| Compound | melting point | pIC50 (VCAM-1) |
| --- | --- | --- |
| C=C(C(=O)c1c(C)cccc1C)c1ccc(C(=O)O)cc1-c1cccs1 [Example 33, 4-[1-(2,6-Dimethyl-benzoyl)-vinyl]-3-thien-2-yl-benzoic acid] | 186.5 to 188 °C | > 5.52 |
| C=C(C(=O)c1c(OC)ccc(-c2cccs2)c1OC)c1cc(C(C)(C)C)c(O)c(C(C)(C)C)c1 [Example 34, 2-(3,5-Di-tert-butyl-4-hydroxy-phenyl)-1-(2,6-dimethoxy-3-thien-2-yl-phenyl)-propenone] | 130 to 132.5 °C | < 5.00 |
| C=C(C(=O)c1c(OC)ccc(-c2cccs2)c1OC)c1ccc(OC(C)(C)C(=O)O)cc1 [Example 35, 2-{4-[1-(2,6-Dimethoxy-3-thien-2-yl-benzoyl)-vinyl]-phenoxy}-2-methyl-propionic acid] | 138 °C (dec.) | > 5.52 |
| C=C(C(=O)c1c(OC)cccc1OC)c1ccc(C(=O)O)cc1-c1cccs1 [Example 36, 4-[1-(2,6-Dimethoxy-benzoyl)-vinyl]-3-thien-2-yl-benzoic acid] | 192 to 195 °C | > 5.52 |
| C=C(C(=O)c1c(OC)ccc(-c2cccs2)c1OC)c1ccc(C(F)(F)F)cc1 [Example 40, 1-(2,6-Dimethoxy-3-thien-2-yl-phenyl)-2-(4-trifluoromethyl-phenyl)-propenone] | 102 to 105 °C | > 6.00 |
| C=C(C(=O)c1c(OC)ccc(-c2cccs2)c1OC)c1ccc([N+](=O)[O-])cc1 [Example 41, 1-(2,6-Dimethoxy-3-thien-2-yl-phenyl)-2-(4-nitrophenyl)-propenone] | 114 to 118 °C | > 6.00 |
| C=C(C(=O)c1c(OC)ccc(-c2cccs2)c1OC)c1c(Cl)cccc1Cl [Example 42, 2-(2,6-Dichloro-phenyl)-1-(2,6-dimethoxy-3-thien-2-yl-phenyl)-propenone] | 152 to 154 °C | > 6.00 |
| C=C(C(=O)c1c(OC)cccc1OC)c1ccccc1-c1cccs1 [Example 43, 1-(2,6-Dimethoxy-phenyl)-2-(2-thien-2-yl-phenyl)-propenone] | 70 to 73 °C | > 5.52 |
| C=C(C(=O)c1c(OC)ccc(-c2cccs2)c1OC)c1cccc(OC(C)(C)C(=O)O)c1 [Example 44, 2-{3-[1-(2,6-Dimethoxy-3-thien-2-yl-benzoyl)-vinyl]-phenoxy}-2-methyl-propionic acid] | 79 to 94 °C | > 5.52 |
| C=C(C(=O)c1c(OC)ccc(-c2cc3ccccc3s2)c1OC)c1cccc(OC(C)(C)C(=O)O)c1 [Example 45, 2-{3-[1-(3-Benzo[b]thien-2-yl-2,6-dimethoxy-benzoyl)-vinyl]-phenoxy}-2-methyl-propionic acid] | 135 to 137 °C | > 6.00 |
| C=C(C(=O)c1cc(-c2cc3ccccc3s2)c(OC)cc1OC)c1ccc(OC)cc1 [Example 46, 1-(5-Benzo[b]thien-2-yl-2,4-dimethoxy-phenyl)-2-(4-methoxy-phenyl)-propenone] | 166 to 168 °C | > 5.52 |
| C=C(C(=O)c1cc(-c2cc3ccccc3s2)c(OC)cc1OC)c1ccc(F)cc1 [Example 47, 1-(5-Benzo[b]thien-2-yl-2,4-dimethoxy-phenyl)-2-(4-fluoro-phenyl)-propenone] | 150 to 152 °C | > 5.52 |
| C=C(C(=O)c1ccc(C(=O)OC)cc1)c1cc(OC)c(OC)c(-c2cccs2)c1 [Example 48, 4-[2-(3,4-Dimethoxy-5-thien-2-yl-phenyl)-acryloyl]-benzoic acid methyl ester] | 102 to 103 °C | > 5.00 |
| C=C(C(=O)c1ccc(C(=O)O)cc1)c1cc(OC)c(OC)c(-c2cccs2)c1 [Example 49, 4-[2-(3,4-Dimethoxy-5-thien-2-yl-phenyl)-acryloyl]-benzoic acid] | 156 to 157 °C | > 5.22 |
| C=C(C(=O)c1ccc(C(=O)NCCN2CCOCC2)cc1)c1cc(OC)c(OC)c(-c2cccs2)c1 [Example 50, 4-[2-(3,4-Dimethoxy-5-thien-2-yl-phenyl)-acryloyl]-N-(2-morpholin-4-yl-ethyl)-benzamide] | 84 to 87 °C | > 5.52 |
| C=C(C(=O)c1ccc(F)cc1)c1cc(-c2cc3ccccc3s2)c(OC)cc1OC [Example 51, 2-(5-Benzo[b]thien-2-yl-2,4-dimethoxy-phenyl)-1-(4-fluoro-phenyl)-propenone] | 142 to 144 °C | > 5.52 |
| C=C(C(=O)c1cc(-c2cccs2)ccc1OC)c1ccc(C#N)cc1 [Example 53, 4-[1-(2-Methoxy-5-thien-2-yl-benzoyl)-vinyl]-benzonitrile] | 86 to 88 °C | > 5.52 |
| C=C(C(=O)c1ccc(C(=O)O)cc1)c1cc(-c2cccs2)c(OC)cc1OC [Example 55, 4-[2-(2,4-Dimethoxy-5-thien-2-yl-phenyl)-acryloyl]-benzoic acid] | 196 to 198 °C | > 5.52 |
| C=C(C(=O)c1cccc(C(=O)O)c1)c1cc(-c2cccs2)ccc1OC [Example 56, 3-[2-(2-Methoxy-5-thien-2-yl-phenyl)-acryloyl]-benzoic acid] | 186 to 188 °C | > 5.52 |
| C=C(C(=O)c1ccc(C(C)(C)C)cc1)c1cc(-c2cccs2)ccc1OC [Example 57, 1-(4-tert-Butyl-phenyl)-2-(2-methoxy-5-thien-2-yl-phenyl)-propenone] | 130 to 132 °C | > 5.52 |
| C=C(C(=O)c1ccc(C(F)(F)F)cc1)c1cc(-c2cccs2)ccc1OC [Example 58, 2-(2-Methoxy-5-thien-2-yl-phenyl)-1-(4-trifluoromethyl-phenyl)-propenone] | 131 to 133 °C | > 5.52 |
| C=C(C(=O)c1ccc(C(=O)O)cc1)c1cc(-c2cccs2)ccc1OCC(=O)N1CCOCC1 [Example 60] | 206 to 207 °C | < 5.00 |
| C=C(C(=O)c1ccc(C(=O)O)cc1)c1cc(-c2ccsc2)ccc1OC [Example 62, 4-[2-(2-Methoxy-5-thien-3-yl-phenyl)-acryloyl]-benzoic acid] | 192 to 194 °C | > 6.00 |
| C=C(C(=O)c1c(OC)ccc(-c2cccs2)c1OC)c1ccc(S(=O)(=O)N(C)CC(=O)O)cc1 [Example 63, ({4-[1-(2,6-Dimethoxy-3-thien-2-yl-benzoyl)-vinyl]-benzenesulfonyl}-methyl-amino)-acetic acid] | 164 to 166 °C | > 5.00 |
| C=C(C(=O)c1c(OC)ccc(-c2cccs2)c1OC)c1c(F)cccc1C(F)(F)F [Example 64, 1-(2,6-Dimethoxy-3-thien-2-yl-phenyl)-2-(2-fluoro-6-trifluoromethyl-phenyl)-propenone] | 76 to 78 °C | < 5.00 |
| C=C(C(=O)c1c(OC)cccc1OC)c1cc(-c2cccs2)ccc1OC [Example 65, 1-(2,6-Dimethoxy-phenyl)-2-(2-methoxy-5-thien-2-yl-phenyl)-propenone] | 162 to 163 °C | > 6.00 |
| C=C(C(=O)c1c(OC)cccc1OC)c1cc(-c2cccs2)ccc1OC(C)(C)C(=O)O [Example 66, 2-{2-[1-(2,6-Dimethoxy-benzoyl)-vinyl]-4-thien-2-yl-phenoxy}-2-methyl-propionic acid] | 72 to 84 °C | > 5.52 |
